Tests used:
[1] = test system: AβMRF; type: cell-based, S. cerevisiae
[2] = molecular target: Hsp104 (Saccharomyces cerevisiae, UniProt P31539); settings: cited from earlier work
[3] = test system: Aβm2MRF; type: cell-based, S. cerevisiae
[4] = test system: Aβm1MRF; type: cell-based, S. cerevisiae
[5] = test system: AβMRF; type: cell-based, S. cerevisiae; remark: listed apart in the source
[6] = molecular target: the molecule itself; test: self-oligomerization; SDS electrophoresis and immunoblot of yeast lysates
[7] = molecular target: Hsp104 (yeast chaperone) (yeast S. cerevisiae, UniProt P31539 1-908); test: co-immunoprecipitation from yeast lysate with anti-HA agarose beads, immunoblot with anti-Hsp104
Chain of Hsp104 (yeast chaperone) (P31539 whole entry): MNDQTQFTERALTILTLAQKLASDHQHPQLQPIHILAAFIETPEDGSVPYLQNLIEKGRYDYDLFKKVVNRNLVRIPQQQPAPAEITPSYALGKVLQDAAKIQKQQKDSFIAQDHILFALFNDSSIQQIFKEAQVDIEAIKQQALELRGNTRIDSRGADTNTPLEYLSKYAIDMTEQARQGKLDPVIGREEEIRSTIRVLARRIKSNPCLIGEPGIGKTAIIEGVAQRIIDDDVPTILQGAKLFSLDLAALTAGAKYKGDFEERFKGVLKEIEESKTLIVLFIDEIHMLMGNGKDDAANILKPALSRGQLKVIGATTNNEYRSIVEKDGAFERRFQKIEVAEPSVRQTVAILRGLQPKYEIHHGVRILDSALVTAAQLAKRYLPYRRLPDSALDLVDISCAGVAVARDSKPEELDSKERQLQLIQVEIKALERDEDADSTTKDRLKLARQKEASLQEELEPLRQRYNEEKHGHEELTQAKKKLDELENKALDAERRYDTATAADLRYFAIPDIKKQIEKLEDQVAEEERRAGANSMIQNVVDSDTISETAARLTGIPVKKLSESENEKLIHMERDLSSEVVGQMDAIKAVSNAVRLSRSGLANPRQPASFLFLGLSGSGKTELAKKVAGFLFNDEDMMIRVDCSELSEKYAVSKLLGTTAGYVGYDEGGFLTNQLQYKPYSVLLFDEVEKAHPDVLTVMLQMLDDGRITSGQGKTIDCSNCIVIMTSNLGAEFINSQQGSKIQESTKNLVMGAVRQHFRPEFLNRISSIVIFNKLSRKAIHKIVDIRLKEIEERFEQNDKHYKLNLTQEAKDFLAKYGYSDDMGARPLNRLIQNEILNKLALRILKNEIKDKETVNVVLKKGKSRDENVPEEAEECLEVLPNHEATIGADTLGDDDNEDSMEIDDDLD
Description: FIG. 7. […] Co-precipitated proteins were eluted and analyzed by immunoblotting with anti-RF and anti-Hsp104 antibodies.
Following incubation, the beads were washed three times with 0.5 ml of phosphate buffered saline containing 0.05% Tween 20 to remove the non-specifically bound proteins.

[8] = molecular target: the molecule itself; test: SDS electrophoresis (1% SDS, room temperature) and immunoblot of yeast lysates

Chain of Hsp104 (P31539 whole entry): as above

For guanidine hydrochloride, the “oligomerization of AβMRF in the absence of HSP104” value [1] is given as “stimulated oligomerization of AβMRF”, the “ATPase activity of Hsp104” value [2] is given as “inhibited by millimolar concentrations” and the “effect on oligomers/monomers of control Aβm2MRF protein” value [3] is given as “No such effect was detected”. The “amount of Aβm1MRF oligomers” value [4] was “dramatically increased”, the “monomeric pool of Aβm1MRF” value [4] was “depleting the monomeric pool” and the “amount of AβMRF oligomers” value [5] was “dramatically increased”. The “monomeric pool of AβMRF” value [5] was “depleting the monomeric pool”.

B1: Aβm1MRF (Aβ42 F19,20T MRF, plasmid p1397) (other, yeast S. cerevisiae, not shown: small tags and cut ends)
chain: MDAEFRHDSGYEVHHQKLVTTAEDVGSNKGAIIGLMVGGVVIAMSLNDFQKQQKQAAPKPKKTLKLVSSSGIKLANATKKVGTKPAESDKKEEEKSAETKEPTKEPTKVEEPVKKEEKPVQTEEKTEEKSELPKVEDLKISESTHNTNNANVTSADALIKEQEEEVDDEVVNDMFGGKDHVSLIFMGHVDAGKSTMGGNLLYLTGSVDKRTIEKYEREAKDAGRQGWYLSWVMDTNKEERNDGKTIEVGKAYFETEKRRYTILDAPGHKMYVSEMIGGASQADVGVLVISARKGEYETGFERGGQTREHALLAKTQGVNKMVVVVNKMDDPTVNWSKERYDQCVSNVSNFLRAIGYNIKTDVVFMPVSGYSGANLKDHVDPKECPWYTGPTLLEYLDTMNHVDRHINAPFMLPIAAKMKDLGTIVEGKIESGHIKKGQSTLLMPNKTAVEIQNIYNETENEVDMAMCGEQVKLRIKGVEEEDISPGFVLTSPKNPIKSVTKFVAQIAIVELKSIIAAGFSCVMHVHTAIEEVHIVKLLHKLEKGTNRKSKKPPAFAKKGMKVIAVLETEAPVCVETYQDYPQLGRFTLRDQGTTIAIGKIVKIAE
notes: domain: M;domain: RF; also called Aβ^F19,20TMRF
B1: binds [6].

B2: MRF (HA-tagged Sup35p without the 123 N-terminal amino acids, plasmid p1366) (other, yeast S. cerevisiae, UniProt P05453 124-253, looked up, not shown: small tags and cut ends)
chain: MSLNDFQKQQKQAAPKPKKTLKLVSSSGIKLANATKKVGTKPAESDKKEEEKSAETKEPTKEPTKVEEPVKKEEKPVQTEEKTEEKSELPKVEDLKISESTHNTNNANVTSADALIKEQEEEVDDEVVNDMFGGKDHVSLIFMGHVDAGKSTMGGNLLYLTGSVDKRTIEKYEREAKDAGRQGWYLSWVMDTNKEERNDGKTIEVGKAYFETEKRRYTILDAPGHKMYVSEMIGGASQADVGVLVISARKGEYETGFERGGQTREHALLAKTQGVNKMVVVVNKMDDPTVNWSKERYDQCVSNVSNFLRAIGYNIKTDVVFMPVSGYSGANLKDHVDPKECPWYTGPTLLEYLDTMNHVDRHINAPFMLPIAAKMKDLGTIVEGKIESGHIKKGQSTLLMPNKTAVEIQNIYNETENEVDMAMCGEQVKLRIKGVEEEDISPGFVLTSPKNPIKSVTKFVAQIAIVELKSIIAAGFSCVMHVHTAIEEVHIVKLLHKLEKGTNRKSKKPPAFAKKGMKVIAVLETEAPVCVETYQDYPQLGRFTLRDQGTTIAIGKIVKIAE
notes: domain: M;domain: RF; also called HA-tagged MRF; Sup35p without the N-terminal prion domain
B2: no binding [7]; no binding [8].

Source: US20100196932A1, “Yeast Reporter System” (THE BOARD OF TRUSTEES OF THE UNIVERSITY OF ILLINOIS, priority 2006, published 2010)
